System: patients with prior myocardial infarction (CARE study)
Assay: CARE: association of SNPs with pravastatin treatment in cardiovascular events prevention (logistic regression, odds ratio pravastatin vs placebo by genotype; Table 8)
Assay type: in vivo, human
Conditions: for Any Report of Stroke Prior to or During CARE, n/total (%) / Cardiovascular Mortality, n/total (%) / Fatal Atherosclerotic Cardiovascular Disease, n/total (%) / Fatal Coronary Heart Disease, n/total (%) / Fatal/Non-fatal Atherosclerotic CV Disease, n/total (%) / Total Coronary Heart Disease Events, n/total (%) / Total Mortality, n/total (%) / Hosp. for Cardiovascular Disease, n/total (%) / Total Cardiovascular Disease Events, n/total (%): Prava arm; for Odds ratio pravastatin vs placebo: TGFB1 hCV8708473, All Patients
Excerpt: In order to identify genetic markers associated with acute coronary events (e.g. MI, stroke, unstable angina, congestive heart failure, etc.) or response to statin treatment for the prevention of coronary events, samples from the Cholesterol and Recurrent Events (CARE) study (a randomized multicentral double-blinded trial on secondary prevention of acute coronary events with pravastatin) (Sacks et al., 1991, Am. J. Cardiol. 68: 1436-1446) were genotyped. A well-documented myocardial infarction (MI) was one of the enrollment criteria for entry into the CARE study. Patients were enrolled in the CARE trial from 80 participating study centers. […] Patients were randomized to receive either 40 mg of pravastatin once daily or a matching placebo. The primary endpoint of the trial was death from coronary heart disease and the median duration of follow-up was 5.0 years (range, 4.0 to 6.2 years). […] Secondary endpoints of other related cardiovascular or metabolic disease events, and changes in clinical variables were also recorded in pravastatin-treated and placebo groups. All individuals included in the study had signed a written informed consent form and the study protocol was approved by the respective Institutional Review Boards (IRBs).
For genotyping SNPs in CARE patient samples, DNA was extracted from blood samples using conventional DNA extraction methods such as the QIA-amp kit from Qiagen. Genotypes were obtained on an ABI PRISM® 7900HT Sequence Detection PCR system (Applied Biosystems, Foster City, Calif.) by kinetic allele-specific PCR, similar to the method described by Germer et al. (Germer S., Holland M. J., Higuchi R. 2000, Genome Res. 10: 258-266).
Statistical analysis for association of SNPs with pravastatin treatment in cardiovascular events prevention (Table 8) was carried out using an overall logistic regression model that included an intercept, a parameter for the effect of a genotype containing two rare alleles versus a genotype containing no rare alleles, a parameter for the effect of a genotype containing one rare allele versus a genotype containing no rare alleles, a parameter for the effect of use of pravastatin versus the use of placebo, and parameters for the interaction effects between SNP genotypes and pravastatin use. The test of the overall model is a chi-square test with two degrees of freedom for analyses containing all three genotypes, and one degree of freedom for analyses containing two genotypes.
Effect sizes were estimated through odds ratios (pravastatin group versus placebo) for carriers of each genotype (groups of 0, 1, and 2 minor allele carriers). The effect was considered to be significant if p-value for testing whether any of the interactions between SNP genotypes and pravastatin use were <0.05. […] Odds ratios less than one indicate that the specific SNP allele has a protective effect and odds ratios greater than one indicate that the specific SNP allele has an adverse effect.

[1] = TGFB1 hCV8708473, All Patients, 1 Rare Allele
[2] = TGFB1 hCV8708473, All Patients, 2 Rare Alleles
[3] = TGFB1 hCV22272997, All Patients, 0 Rare Alleles
[4] = TGFB1 hCV22272997, All Patients, 1 Rare Allele
[5] = TGFB1 hCV22272997, All Patients, 2 Rare Alleles
[6] = TLR5 hCV15871020, All Patients, 0 Rare Alleles
[7] = TLR5 hCV15871020, All Patients, 1 Rare Allele

CC[C@H](C)C(=O)O[C@H]1C[C@H](O)C=C2C=C[C@H](C)[C@H](CC[C@@H](O)C[C@@H](O)CC(=O)O)[C@H]21 [pravastatin]
Any Report of Stroke Prior to or During CARE, n/total (%) [1]: (3.8%) | Cardiovascular Mortality, n/total (%) [1]: (1.7%) | Fatal Atherosclerotic Cardiovascular Disease, n/total (%) [1]: (1.7%) | Fatal Coronary Heart Disease, n/total (%) [1]: (1.2%) | Fatal/Non-fatal Atherosclerotic CV Disease, n/total (%) [1]: (27.9%) | Total Coronary Heart Disease Events, n/total (%) [1]: (23.9%) | Total Mortality, n/total (%) [1]: (3.8%) | Any Report of Stroke Prior to or During CARE, n/total (%) [2]: (3.7%) | Cardiovascular Mortality, n/total (%) [2]: (3.1%) | Fatal Atherosclerotic Cardiovascular Disease, n/total (%) [2]: (3.1%) | Fatal Coronary Heart Disease, n/total (%) [2]: (2.5%) | Fatal/Non-fatal Atherosclerotic CV Disease, n/total (%) [2]: (38.3%) | Total Coronary Heart Disease Events, n/total (%) [2]: (37.0%) | Total Mortality, n/total (%) [2]: (4.9%) | Odds ratio pravastatin vs placebo (Any Report of Stroke Prior to or During CARE, 0 rare alleles): 1.35 | Odds ratio pravastatin vs placebo (Any Report of Stroke Prior to or During CARE, 1 rare allele): 0.68 | Odds ratio pravastatin vs placebo (Any Report of Stroke Prior to or During CARE, 2 rare alleles): 0.38 | Odds ratio pravastatin vs placebo (Cardiovascular Mortality, 0 rare alleles): 1.95 | Odds ratio pravastatin vs placebo (Cardiovascular Mortality, 1 rare allele): 0.30 | Odds ratio pravastatin vs placebo (Cardiovascular Mortality, 2 rare alleles): 0.48 | Odds ratio pravastatin vs placebo (Fatal Atherosclerotic Cardiovascular Disease, 0 rare alleles): 1.90 | Odds ratio pravastatin vs placebo (Fatal Atherosclerotic Cardiovascular Disease, 1 rare allele): 0.30 | Odds ratio pravastatin vs placebo (Fatal Atherosclerotic Cardiovascular Disease, 2 rare alleles): 0.48 | Odds ratio pravastatin vs placebo (Fatal Coronary Heart Disease, 0 rare alleles): 1.79 | Odds ratio pravastatin vs placebo (Fatal Coronary Heart Disease, 1 rare allele): 0.26 | Odds ratio pravastatin vs placebo (Fatal Coronary Heart Disease, 2 rare alleles): 0.49 | Odds ratio pravastatin vs placebo (Fatal/Non-fatal Atherosclerotic CV Disease, 0 rare alleles): 0.94 | Odds ratio pravastatin vs placebo (Fatal/Non-fatal Atherosclerotic CV Disease, 1 rare allele): 0.59 | Odds ratio pravastatin vs placebo (Fatal/Non-fatal Atherosclerotic CV Disease, 2 rare alleles): 0.81 | Odds ratio pravastatin vs placebo (Total Coronary Heart Disease Events, 0 rare alleles): 0.91 | Odds ratio pravastatin vs placebo (Total Coronary Heart Disease Events, 1 rare allele): 0.58 | Odds ratio pravastatin vs placebo (Total Coronary Heart Disease Events, 2 rare alleles): 1.00 | Odds ratio pravastatin vs placebo (Total Mortality, 0 rare alleles): 1.50 | Odds ratio pravastatin vs placebo (Total Mortality, 1 rare allele): 0.48 | Odds ratio pravastatin vs placebo (Total Mortality, 2 rare alleles): 0.65 | Cardiovascular Mortality, n/total (%) [3]: (5.6%) | Fatal Atherosclerotic Cardiovascular Disease, n/total (%) [3]: (5.6%) | Fatal Coronary Heart Disease, n/total (%) [3]: (5.2%) | Total Coronary Heart Disease Events, n/total (%) [3]: (32.5%) | Total Mortality, n/total (%) [3]: (7.4%) | Cardiovascular Mortality, n/total (%) [4]: (2.5%) | Fatal Atherosclerotic Cardiovascular Disease, n/total (%) [4]: (2.4%) | Fatal Coronary Heart Disease, n/total (%) [4]: (2.0%) | Total Coronary Heart Disease Events, n/total (%) [4]: (25.0%) | Total Mortality, n/total (%) [4]: (4.6%) | Cardiovascular Mortality, n/total (%) [5]: (2.5%) | Fatal Atherosclerotic Cardiovascular Disease, n/total (%) [5]: (2.5%) | Fatal Coronary Heart Disease, n/total (%) [5]: (2.0%) | Total Coronary Heart Disease Events, n/total (%) [5]: (33.2%) | Total Mortality, n/total (%) [5]: (3.7%) | Fatal/Non-fatal Atherosclerotic CV Disease, n/total (%) [6]: (34.4%) | Hosp. for Cardiovascular Disease, n/total (%) [6]: (40.8%) | Total Cardiovascular Disease Events, n/total (%) [6]: (42.0%) | Total Coronary Heart Disease Events, n/total (%) [6]: (30.5%) | Fatal/Non-fatal Atherosclerotic CV Disease, n/total (%) [7]: (32.1%) | Hosp. for Cardiovascular Disease, n/total (%) [7]: (40.8%) | Total Cardiovascular Disease Events, n/total (%) [7]: (41.8%) | Total Coronary Heart Disease Events, n/total (%) [7]: (27.2%)

From US9932637B2, “Genetic polymorphisms associated with cardiovascular disorders and drug response, methods of detection and uses thereof” (CELERA CORPORATION, priority 2003, dated 2018)
